Experimental data reported in US10899710B2, “Pyridines and their use in the treatment of cancer” (The United States of America, as represented by the …, priority 2015, dated 2021).
Where a name gives a salt, the structure may show the parent alone. Read-outs that look alike come from different tables or passages of the source.

Key:
[1] = target: T1, recombinant thioredoxin reductase 1 (TrxR1) (Homo sapiens, UniProt Q16881); test: Inhibition of recombinant TrxR1 (DTNB assay); assay type: biochemical; conditions: read-out: TrxR inhibition (IC50)
T1 sequence (Q16881 151-649 limits assumed): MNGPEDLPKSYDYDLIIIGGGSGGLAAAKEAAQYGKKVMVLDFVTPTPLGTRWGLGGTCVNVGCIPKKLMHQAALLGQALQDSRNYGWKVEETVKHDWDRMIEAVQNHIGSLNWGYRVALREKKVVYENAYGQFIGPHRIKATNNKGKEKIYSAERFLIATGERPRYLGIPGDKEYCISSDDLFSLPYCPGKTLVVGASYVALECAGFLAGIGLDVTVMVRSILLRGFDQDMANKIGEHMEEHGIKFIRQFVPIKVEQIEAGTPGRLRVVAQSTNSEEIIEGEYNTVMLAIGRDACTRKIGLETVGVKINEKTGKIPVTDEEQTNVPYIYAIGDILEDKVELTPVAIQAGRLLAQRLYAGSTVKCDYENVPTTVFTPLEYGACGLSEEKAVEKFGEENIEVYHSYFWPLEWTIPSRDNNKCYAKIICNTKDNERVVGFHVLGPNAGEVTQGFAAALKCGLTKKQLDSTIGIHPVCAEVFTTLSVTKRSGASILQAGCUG
Procedure: (§1) Small molecule inhibition of recombinant thioredoxin reductase 1 (TrxR1) and gluthathione reductase (GR) was examined in 96-well plate format. 15 nM TrxR1 was incubated in the presence of 250 μM NADPH, 0.1 mg/ml BSA, and various concentrations of the compound of Example 1 (1% DMSO final) in 50 mM Tris (pH 7.5) and 2 mM EDTA buffer for 15 minutes. Following the incubation period, 2.5 mM DTNB was added to each well and the change in O.D. at 412 nm was followed. Percent activity was determined using DMSO vehicle and no TrxR1 (blank) controls. 2 nM GR was incubated in the presence of 250 μM NADPH, 0.1 mg/ml BSA, and various concentrations of compounds (1% DMSO final) in 50 mM Tris (pH 7.5) and 2 mM EDTA buffer for 15 minutes. Following the incubation period, 1 mM GSSG was added to each well and the change in O.D. at 340 nm was followed. Percent activity was determined using DMSO vehicle and no GR (blank) controls.

[2] = target: T2, gluthathione reductase (GR) (Homo sapiens, UniProt P00390); test: Inhibition of recombinant GR (GSSG assay); assay type: biochemical
T2 sequence (P00390 44-522): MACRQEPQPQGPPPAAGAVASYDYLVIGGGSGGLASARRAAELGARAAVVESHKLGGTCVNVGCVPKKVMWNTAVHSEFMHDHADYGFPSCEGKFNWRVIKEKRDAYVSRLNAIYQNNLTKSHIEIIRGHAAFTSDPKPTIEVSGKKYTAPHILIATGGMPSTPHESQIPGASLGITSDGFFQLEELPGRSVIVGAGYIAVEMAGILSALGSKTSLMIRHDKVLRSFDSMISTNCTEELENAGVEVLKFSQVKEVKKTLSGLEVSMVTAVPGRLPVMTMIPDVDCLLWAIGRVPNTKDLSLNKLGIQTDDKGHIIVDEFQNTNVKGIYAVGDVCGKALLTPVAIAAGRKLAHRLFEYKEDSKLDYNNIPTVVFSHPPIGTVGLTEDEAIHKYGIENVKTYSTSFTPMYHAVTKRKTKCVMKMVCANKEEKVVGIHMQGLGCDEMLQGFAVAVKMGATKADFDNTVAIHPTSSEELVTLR
Procedure: as §1

[3] = test system: HOP-62; test: Growth inhibition GI50, HOP-62; assay type: cell-based; conditions: Homo sapiens, Non-Small Cell Lung Cancer
Procedure: (§2) Cell lines were plated 2000 cells/well in 96-well black optical plates in the presence of 10% FBS media containing 25 nM selenite. The following day cells were treated with various concentrations of the compound of Example 1 (0.1% DMSO final) and incubated for 72 hrs. After the incubation Cell-Quanti Blue reagent was added to each well and incubated for additional 3 hrs. Fluorescence was read ex:530 nm/em:590 nm, and percent of viability was determined using DMSO vehicle and no cell (blank) controls.
(§3) Further results obtained in similar experiments were as indicated below (GI50 refers to concentration of compound yielding 50% growth inhibition; E denotes an exponent to the base 10).

[4] = test system: NCI-H322M; test: Growth inhibition GI50, NCI-H322M; assay type: cell-based; conditions: Homo sapiens, Non-Small Cell Lung Cancer
Procedure: as §2, §3

[5] = test system: KM12; test: Growth inhibition GI50, KM12; assay type: cell-based; conditions: Homo sapiens, Colon Cancer
Procedure: as §2, §3

[6] = test system: SF-268; test: Growth inhibition GI50, SF-268; assay type: cell-based; conditions: Homo sapiens, CNS Cancer
Procedure: as §2, §3

[7] = test system: SF-539; test: Growth inhibition GI50, SF-539; assay type: cell-based; conditions: Homo sapiens, CNS Cancer
Procedure: as §2, §3

[8] = test system: SNB-19; test: Growth inhibition GI50, SNB-19; assay type: cell-based; conditions: Homo sapiens, CNS Cancer
Procedure: as §2, §3

[9] = test system: U251; test: Growth inhibition GI50, U251; assay type: cell-based; conditions: Homo sapiens, U-251, CNS Cancer
Procedure: as §2, §3

[10] = test system: M14; test: Growth inhibition GI50, M14; assay type: cell-based; conditions: Homo sapiens, Melanoma
Procedure: as §2, §3

[11] = test system: UACC-62; test: Growth inhibition GI50, UACC-62; assay type: cell-based; conditions: Homo sapiens, Melanoma
Procedure: as §2, §3

[12] = test system: IGROV1; test: Growth inhibition GI50, IGROV1; assay type: cell-based; conditions: Homo sapiens, IGROV-1, Ovarian Cancer
Procedure: as §2, §3

[13] = test system: OVCAR-3; test: Growth inhibition GI50, OVCAR-3; assay type: cell-based; conditions: Homo sapiens, Ovarian Cancer
Procedure: as §2, §3

[14] = test system: OVCAR-4; test: Growth inhibition GI50, OVCAR-4; assay type: cell-based; conditions: Homo sapiens, Ovarian Cancer
Procedure: as §2, §3

[15] = test system: OVCAR-5; test: Growth inhibition GI50, OVCAR-5; assay type: cell-based; conditions: Homo sapiens, Ovarian Cancer
Procedure: as §2, §3

[16] = test system: NCI/ADR-RES; test: Growth inhibition GI50, NCI/ADR-RES; assay type: cell-based; conditions: Homo sapiens, Ovarian Cancer
Procedure: as §2, §3

[17] = test system: 786-0; test: Growth inhibition GI50, 786-0; assay type: cell-based; conditions: Homo sapiens, Renal Cancer
Procedure: as §2, §3

[18] = test system: ACHN; test: Growth inhibition GI50, ACHN; assay type: cell-based; conditions: Homo sapiens, Renal Cancer
Procedure: as §2, §3

[19] = test system: SN12C; test: Growth inhibition GI50, SN12C; assay type: cell-based; conditions: Homo sapiens, Renal Cancer
Procedure: as §2, §3

[20] = test system: PC-3; test: Growth inhibition GI50, PC-3; assay type: cell-based; conditions: Homo sapiens, Prostate Cancer
Procedure: as §2, §3

[21] = test system: MDA-MB-231/ATCC; test: Growth inhibition GI50, MDA-MB-231/ATCC; assay type: cell-based; conditions: Homo sapiens, Breast Cancer
Procedure: as §2, §3

COc1ccc([N+](=O)[O-])c(S(=O)(=O)c2ccc(Cl)cc2)n1 [Example 1, 2-((4-Chlorophenyl)sulphonyl)-6-methoxy-3-nitropyridine Hydrochloride]
IC50 ([1]; Biological Example 1, 15 nM TrxR1, 15 minutes incubation): 0.012 µM | IC50 ([1]; Biological Example 4): 0.021 µM | IC50 ([2]; Biological Example 1, 2 nM GR, 15 minutes incubation): > 100 µM | IC50 ([2]; Biological Example 4): > 100 µM | GI50 [3]: 16.6 µM | GI50 [4]: 20.4 µM | GI50 [5]: 14 µM | GI50 [6]: 4.57 µM | GI50 [7]: 3.39 µM | GI50 [8]: 13 µM | GI50 [9]: 8.69 µM | GI50 [10]: 3.05 µM | GI50 [11]: 3.56 µM | GI50 [12]: 12.2 µM | GI50 [13]: 2.33 µM | GI50 [14]: 2.32 µM | GI50 [15]: 3.13 µM | GI50 [16]: 4.93 µM | GI50 [17]: 2.51 µM | GI50 [18]: 2.08 µM | GI50 [19]: 3.82 µM | GI50 [20]: 17.3 µM | GI50 [21]: 2.83 µM
